In experiment [1] the test system is Mycobacterium tuberculosis H37Rv growth in 7H9 media. The experiment can be described thus: M. tuberculosis growth inhibition, dose response, H37Rv, purified and synthesized compounds (AID 493198). Conditions: for IC90: 90% growth inhibition concentration.
Assay in experiment [2]: as above
Conditions: Mycobacterium tuberculosis H37Rv growth in 7H9 media; at 100 µM (top of the series).

This passage reports IC50, IC90 and growth inhibition results from PubChem BioAssay AID493198 (Southern Research Specialized Biocontainment Screening …, 2011).

The structures appear in SMILES notation. Calls of active or inactive are those of the source. How the calls were made is not given here. Where a SMILES comes first, the peptide text is derived from it.

`CCOC(=O)CNC(=O)[C@H](Cc1ccccc1)NC(=O)OCc1ccccc1` (HELM PEPTIDE1{[O=C(OCc1ccccc1)[*:2]].F.G.[CCO[*:1]]}$$$$V2.0): in experiment [1], the IC50 is 1090 nM and the concentration for an effect of 90% (IC90) stood at 1860 nM.

Take `O=C1C(Br)=Cc2cccc3cccc1c23`: in experiment [1], the half-maximal inhibitory concentration (IC50) is under 200 nM and the IC90 is under 200 nM.

As for `CC(=NCc1ccc2c(c1)OCO2)C1=C(O)c2ccccc2C1=O`, in experiment [1], the IC50 is under 200 nM and the IC90 came out at 23100 nM.

Turning to `O=C(CSc1nc2ccccc2c(=O)[nH]1)NC1CCCCC1`, in experiment [1], the 50% inhibitory concentration (IC50) was under 200 nM and the IC90 was under 200 nM.

Regarding `O=C(CSc1nc2ccccc2c(=O)[nH]1)NCc1ccc(Cl)cc1`, in experiment [1], the IC50 is under 200 nM and the 90% effect concentration (IC90) worked out at 929 nM.

As for `COC(=O)CCc1nc2c(C#N)c(-c3ccc(Cl)cc3)ccn2n1`, in experiment [1], the IC50 was under 200 nM and the IC90 was 14000 nM.

On to `Cc1ccc2c(c1)c(C1=c3ccccc3=NC1=O)c(O)n2C`, for which, in experiment [1], the half-inhibitory concentration (IC50) is under 200 nM and the IC90 came to 1870 nM.

`O=C(NCC(c1cccs1)N1CCOCC1)c1cc([N+](=O)[O-])cc([N+](=O)[O-])c1` (centres undefined): in experiment [1], the IC50 is under 200 nM and the IC90 is under 200 nM.

As to `Cc1nn2c(NCc3ccccn3)cc(C(C)C)nc2c1-c1ccccc1`, in experiment [1], the IC50 was 1030 nM and the IC90 came to 1560 nM.

On to `CCOC(=O)COc1ccc(/C=C2\NC(=S)N(CC)C2=O)cc1`, for which, in experiment [1], the IC50 was 1310 nM and the IC90 was 5200 nM.

As for `Cc1ccc(NC(=O)C2C3/C=C\CCCCC32)cc1C` (centres undefined), in experiment [1], the IC50 was 1170 nM and the IC90 worked out at 1840 nM.

In the case of `CCOC(=O)C(C)Sc1ncnc2c1nnn2-c1ccc(F)cc1` (centres undefined), in experiment [1], the IC50 is under 200 nM and the IC90 came out at 7770 nM.

For `O=C(/C=C\c1cccs1)N1CCN(Cc2ccc3c(c2)OCO3)CC1`, in experiment [1], the IC50 was 445 nM and the IC90 is 7480 nM.

Take `O=C(/C=C/c1ccccc1)N1CCN(CCN2C(=O)c3cccc4cccc(c34)C2=O)CC1`: in experiment [1], the IC50 is 3470 nM and the IC90 was 5320 nM.

Regarding `COC(=O)c1cc(=O)n(-c2ccc(F)cc2)c(=Nc2ccc(F)cc2)s1`, in experiment [1], the IC50 was under 200 nM and the IC90 was 1580 nM.

For the molecule `c1ccc(/N=C2\N=C(Nc3ccccn3)c3ccccc32)nc1`, in experiment [1], the IC50 was under 200 nM and the concentration for an effect of 90% (IC90) was under 200 nM.

For the molecule `CCc1ccc(/C=C2/C(=O)N(C)C(=S)N2CC(=O)OC)s1`, in experiment [1], the IC50 was 2270 nM and the IC90 was 17700 nM.

Turning to `COC(=O)C1CC(=O)N(c2ccc(OCc3ccccc3Cl)cc2)C1` (centres undefined), in experiment [1], the IC50 was under 200 nM and the IC90 stood at 18400 nM.

Take `COc1cc(NC(=O)C/C(C)=N/NC(=O)c2ccccn2)c(OC)cc1Cl`: in experiment [1], the concentration for half-maximal inhibition (IC50) is 1940 nM and the IC90 was 4880 nM.

For the molecule `CNc1nc(SCc2ccccc2Cl)nc2c1CCCC2`, in experiment [1], the IC50 was under 200 nM and the IC90 amounted to 5050 nM.

Regarding `Cc1cccc(/C=C/C(=O)c2ccc([N+](=O)[O-])o2)c1`, in experiment [1], the IC50 was under 200 nM and the IC90 is under 200 nM.

For `CCOC(=O)c1ccc(NC(=O)Cn2ncc(Cl)c(Cl)c2=O)cc1`, in experiment [1], the IC50 is under 200 nM and the IC90 was found to be 203 nM.

Turning to `CCOC(=O)COn1c2c(c3c4no[n+]([O-])c4ccc31)CCCC2`, in experiment [1], the IC50 was 1580 nM and the 90% effect concentration (IC90) turned out to be 3110 nM.

With `CCC(C)Nc1ccc(NC(C)CC)cc1` (centres undefined), in experiment [1], the IC50 is 609 nM and the concentration for an effect of 90% (IC90) worked out at 1660 nM.

Consider `Cc1nc(SCC(=O)NC2CCCCC2)[nH]c(=O)c1C`, for which, in experiment [1], the IC50 is under 200 nM and the IC90 is under 200 nM.

Regarding `Oc1ccccc1/C=N/Nc1ccnc(SCc2ccccc2)n1`, the growth inhibition in experiment [2] is 2.04% (inactive).

As for `Cc1ccc2ccc3ccc(C)nc3c2n1`, in experiment [1], the half-inhibitory concentration (IC50) is under 200 nM and the IC90 was under 200 nM.

Consider `CC(C)NC(=O)c1sc(=S)n2c1[nH]c(=O)c1ccc(C(=O)NCCc3ccc(Cl)cc3)cc12`, for which, in experiment [1], the IC50 is under 200 nM and the IC90 was under 200 nM.

As for `COC(=O)C(C)Oc1ccc(-c2nccc(-c3ccccn3)n2)cc1` (centres undefined), in experiment [1], the IC50 is 1190 nM and the 90% effect concentration (IC90) amounted to 2920 nM.

Consider `S=c1nc[nH]c2nc[nH]c12`, for which, in experiment [1], the IC50 was 1280 nM and the IC90 worked out at 1760 nM.
